# US8637521B2, “Substituted piperazin-2,5-diones and their use as multifunctional bioactive compounds” (priority 2006, dated 2014)
# Where “and” joins values, the source holds several entries; their conditions need not be identical. Equal entries are not always repeated.
# Legend:
# [1] = system: CFU-S population in the bone marrow; experiment: Spleen colony formation (CFU-S) by bone marrow cells of peptide-treated intact donor mice; type: in vivo, (CBA×C57 B1) F1 mice; conditions: for Colony count CFU-8 - S per 10^5 cells M ± m: control 9.9 ± 0.7; for Colony count CFU-8 - S per 10^5 cells M ± M: control 11.2 ± 0.4
# Protocol: The effect of tested substances on intact bone marrow was studied in vivo. […] Two days after administration of preparation, the mice were killed. Bone marrow suspension was prepared and injected intravenously to lethally irradiated mice. The colony forming activity was evaluated at day 8. Test animals were (CBA×C57 B1) F1 mice (30 mice per trial, average from 3 tests).
# Anti-OVA antibody titers = experiment: Adjuvant activity, anti-OVA antibody titers by ELISA (Example 8); type: in vivo, Balb/c mice; conditions: for Anti-protein antibody titer (pooled sera) / Stimulation index / Anti-protein antibody titer (for individual sera): Table 7
# Protocol: Adjuvant activity was tested on 11 groups of Balb/c mice (obtained from Stolbovaya Breeding Station). Each group consisted of 7 animals. Three immunizations were performed as follows:
# • Group 1—ovalbumin 25 micrograms per animal (Mouse Nos. 1 to 7) • Group 2—ovalbumin 25 micrograms per animal+CFA (Complete Freund's adjuvant) (Mouse Nos. 8 to 14) • Group 3—ovalbumin 25 micrograms per animal+adjuvant of compound 33a 100 micrograms per animal (Mouse Nos. 15 to 21) • Group 4—ovalbumin 25 micrograms per animal+adjuvant of compound 33a 10 micrograms per animal (Mouse Nos. […]) • Group 5—ovalbumin 25 micrograms per animal+adjuvant of compound 33a 1 microgram per animal (Mouse Nos. […]) • Group 6—ovalbumin 25 micrograms per animal+adjuvant of compound 33b 100 micrograms per animal (No. 36 to 42) • Group 7—ovalbumin 25 micrograms per animal+adjuvant of compound 33b 10 micrograms per animal (Mouse Nos. 43 to 49) • Group 8—ovalbumin 25 micrograms per animal+adjuvant of compound 33b 1 microgram per animal (Mouse Nos. 50 to 56) • Group 9—ovalbumin 25 micrograms per animal+adjuvant of compound 17 100 micrograms per animal (Mouse Nos. 57 to 63) • Group 10—ovalbumin 25 micrograms per animal+adjuvant of compound 1710 micrograms per animal (Mouse Nos. 64 to 70) • Group 11—ovalbumin 25 micrograms per animal+adjuvant of compound 171 microgram per animal (Mouse Nos. 71 to 77) Second Immunization:
# The same set 14 days after first immunization by injection of 12.5 micrograms of ovalbumin/mouse to mouse nos. 1 to 77.
# The same set 28 days after first immunization by injection of 12.5 micrograms of ovalbumin/mouse to mouse nos. 1 to 77.
# On day 35 after first immunization, blood samples from each mouse were collected.
# OVA (10 micrograms/ml) solution in 0.05 M sodium carbonate buffer (pH 9.5) was added to plate wells, 0.1 ml per well and incubated at 4° C. for 16 hours. The OVA solution was then removed and the plate was washed 4 times with PBS containing 0.05% Tween-20. Such washing was performed after each incubation stage. Serial twofold dilutions of sera (starting from 1:100 or 1:1000) were added to the wells, 0.1 ml per well and incubated at 37° C. for 1 hour followed by incubation (1 hour, 37° C.) with HRP-conjugated goat anti-mouse IgG antibodies (0.1 ml, 1 mg/ml in PBS) and then with a 0.1 mL substrate solution −0.05% H2O2 and 0.05% o-phenylene diamine in 0.05M sodium citrate buffer with a pH of 4.5. The reaction was stopped by adding 100 μl of 12.5% H2SO4. Absorbance was measured at a wavelength of 492 nm using a Multiscan Plus MKII (Flow Laboratories, Great Britain). Significant anti-protein antibody titer (for individual sera) was assessed as the serum dilution produced an absorbance value of more than 0.1 ODU and the minimum exceeds three times the control level. The antibody titer was presented and −log of dilution (FIGS. 2 and 3). The stimulation index for pooled sera was calculated by dividing the test pooled sera dilution producing OD=1 by the dilution of pooled sera from mice immunized without the adjuvant, producing OD=1. The results of the adjuvant activities of cyclo-L-Ala-L-Glu-(L-Trp-OH) (Compound 17), cyclo-L-Lys(N-acetyl-Glycosamine-N-acetyl-muramil)-L-Glu-(L-Trp-OH) (Compound 33a) and cyclo-D-Lys(N-acetyl-Glycosamine-N-acetyl-muramil)-D-Glu-(L-Trp-OH) (Compound 33b) are shown in Table 7 and the adjuvant activities of cyclo [L-Lys(Palmitoyil)-L-Glu(D-Trp-OH)] (Compound 26a) and cyclo [D-Lys(Palmitoyil)-D-Glu(D-Trp-OH)] (Compound 26b) are shown in Table 8 as well as in FIG. 4 which includes the results of the adjuvant activities of cyclo-L-Lys-L-Glu-(L-Trp-OH) (compound 19). It is noted that the peptides of compounds 26a and 26b are soluble in 0.1% NH4OH at a concentration of 1 mg per 1 to 2 ml.
# [2] = Table 3, 0.2 microgram per mouse per os
# [3] = Table 2, donor treated i/p, colonies day 8
# [4] = Table 3, 0.2 microgram per mouse i/p
# [5] = Table 3, 2.0 microgram per mouse per os
# [6] = Table 3, 20.0 microgram per mouse per os
# [7] = Table 3, 200.0 microgram per mouse per os
# [8] = 100 μg per animal, no adjuvant 4.5
# [9] = 100 μg per animal, no adjuvant = 1
# [10] = OVA + adjuvant 1 μg per animal, −log of dilution
# [11] = OVA + adjuvant 10 μg per animal, −log of dilution
# [12] = OVA + adjuvant 100 μg per animal, titer as −log of dilution, one value per mouse
compound,measurement,setting,value
O=C(CCC1NC(=O)C(Cc2ccc(O)cc2)NC1=O)NC(Cc1c[nH]c2ccccc12)C(=O)[O-].[Na+] (centres unmarked) [cyclo-DTyr-DGlu-(DTrp-ONa)],% suppression,[1]; [2],44%
same,Colony count CFU-8 - S per 10^5 cells M ± m,[1]; [2],6.3 ± 0.9 per 10^5 cells
"NCCCCC1NC(=O)C(CCC(=O)NC(Cc2c[nH]c3ccccc23)C(=O)O)NC1=O [Compound 19, cyclo-L-Lys-L-Glu-(L-Trp-OH)]","adjuvant activity (FIG. 4), doses at which active",Anti-OVA antibody titers,active at 100 μg/kg
"C[C@H]1NC(=O)[C@@H](CC(=O)N[C@H](Cc2c[nH]c3ccccc23)C(=O)O)NC1=O [Compound 13, Cyclo-D-Ala-D-Asp-(D-Trp-OH)]",% suppression,"[1]; Table 2, donor treated per os",26.5%
same,Colony count CFU-8 - S per 10^5 cells M ± M,"[1]; Table 2, donor treated per os",9.0 ± 0.2 per 10^5 cells
"γDGlu-DTrp [Thymodepressin, reference compound]",% suppression,"[1]; Table 2, donor treated i/p",55%
same,Colony count CFU-8 - S per 10^5 cells M ± M,[1]; [3],6.3 ± 0.6 per 10^5 cells
same,% suppression,[1]; [4],51%
same,Colony count CFU-8 - S per 10^5 cells M ± m,[1]; [4],5.7 ± 0.4 per 10^5 cells
same,% suppression,[1]; [2],0%
same,Colony count CFU-8 - S per 10^5 cells M ± m,[1]; [2],10.2 ± 0.3 per 10^5 cells
same,% suppression,[1]; [5],33%
same,Colony count CFU-8 - S per 10^5 cells M ± m,[1]; [5],8.0 ± 0.5 per 10^5 cells
same,% suppression,[1]; [6],41%
same,Colony count CFU-8 - S per 10^5 cells M ± m,[1]; [6],6.4 ± 0.5 per 10^5 cells
same,% suppression,[1]; [7],52%
same,Colony count CFU-8 - S per 10^5 cells M ± m,[1]; [7],5.1 ± 0.2 per 10^5 cells
same,effect on CFU-S population in the bone marrow of intact mice,[1]; text statement on Table 2,decreased the CFU-S population in the bone marrow
O=C(CCC1NC(=O)C(Cc2ccc(O)cc2)NC1=O)NC(Cc1c[nH]c2ccccc12)C(=O)O (centres unmarked) [cyclo-DTyr-DGlu-(DTrp-OH)],% suppression,"[1]; Table 2, donor treated per os",44%
same,Colony count CFU-8 - S per 10^5 cells M ± M,"[1]; Table 2, donor treated per os",6.3 ± 0.9 per 10^5 cells
C[C@H]1NC(=O)[C@@H](CCC(=O)N[C@H](Cc2c[nH]c3ccccc23)C(=O)[O-])NC1=O.[Na+] [cyclo-DAla-DGlu-(DTrp-ONa)],% suppression,"[1]; Table 2, donor treated i/p",70%
same,Colony count CFU-8 - S per 10^5 cells M ± M,[1]; [3],5.0 ± 0.3 per 10^5 cells
same,% suppression,"[1]; Table 2, donor treated per os",58%
same,Colony count CFU-8 - S per 10^5 cells M ± M,"[1]; Table 2, donor treated per os",6.0 ± 0.7 per 10^5 cells
same,% suppression,[1]; [2],59%
same,Colony count CFU-8 - S per 10^5 cells M ± m,[1]; [2],5.3 ± 0.6 per 10^5 cells
CC1NC(=O)C(CC(=O)NC(Cc2c[nH]c3ccccc23)C(=O)[O-])NC1=O.[Na+] (centres unmarked) [cyclo-DAla-DAsp-(DTrp-ONa)],% suppression,[1]; [2],55%
same,Colony count CFU-8 - S per 10^5 cells M ± m,[1]; [2],6.8 ± 0.8 per 10^5 cells
"COC(=O)[C@@H](Cc1c[nH]c2ccccc12)NC(=O)CC[C@H]1NC(=O)[C@@H](C)NC1=O [Compound 1, Cyclo-D-Ala-D-Glu-(D-Trp-OMe)]",% suppression,"[1]; Table 2, donor treated per os",40%
same,Colony count CFU-8 - S per 10^5 cells M ± M,"[1]; Table 2, donor treated per os",7.4 ± 0.4 per 10^5 cells
same,% suppression,"[1]; Table 2, donor treated s/c",47%
same,Colony count CFU-8 - S per 10^5 cells M ± M,"[1]; Table 2, donor treated s/c",6.8 ± 0.4 per 10^5 cells
same,% suppression,[1]; [2],42%
same,Colony count CFU-8 - S per 10^5 cells M ± m,[1]; [2],6.5 ± 0.5 per 10^5 cells
"CC(=O)N[C@H]1[C@H](O[C@H]2[C@H](O[C@H](C)C(=O)NCCCC[C@@H]3NC(=O)[C@H](CCC(=O)N[C@@H](Cc4c[nH]c5ccccc45)C(=O)O)NC3=O)[C@@H](NC(C)=O)C(O)O[C@@H]2CO)O[C@H](CO)[C@@H](O)[C@@H]1O (stereo partly drawn) [Compound 33a, cyclo-L-Lys(N-acetyl-Glycosamine-N-acetyl-muramil)-L-Glu-(L-Trp-OH)]","adjuvant activity (FIG. 4), doses at which active",Anti-OVA antibody titers,active at 100 μg/kg
same,Anti-protein antibody titer (pooled sera),Anti-OVA antibody titers; 1 μg per animal,4.8
same,Stimulation index,Anti-OVA antibody titers; 1 μg per animal,2.9
same,Anti-protein antibody titer (pooled sera),Anti-OVA antibody titers; 10 μg per animal,5.1
same,Stimulation index,Anti-OVA antibody titers; 10 μg per animal,3.5
same,Anti-protein antibody titer (pooled sera),Anti-OVA antibody titers; [8],5.5
same,Stimulation index,Anti-OVA antibody titers; [9],6.8
same,Anti-protein antibody titer (for individual sera),Anti-OVA antibody titers; [10],5.1 (2×) and 4.2 and 5.4 (3×) and 4.1
same,Anti-protein antibody titer (for individual sera),Anti-OVA antibody titers; [11],4.4 and 5.7 (4×) and 4.7 and 5.4
same,Anti-protein antibody titer (for individual sera),Anti-OVA antibody titers; [12],4.8 (2×) and 5.4 and 5.1 (2×) and 6.4 and 5.7
"CC(=O)N[C@H]1[C@H](O[C@H]2[C@H](O[C@H](C)C(=O)NCCCC[C@H]3NC(=O)[C@@H](CCC(=O)N[C@@H](Cc4c[nH]c5ccccc45)C(=O)O)NC3=O)[C@@H](NC(C)=O)C(O)O[C@@H]2CO)O[C@H](CO)[C@@H](O)[C@@H]1O (stereo partly drawn) [Compound 33b, cyclo-D-Lys(N-acetyl-Glycosamine-N-acetyl-muramil)-D-Glu-(L-Trp-OH)]","adjuvant activity (FIG. 4), doses at which active",Anti-OVA antibody titers,not an active compound
same,Anti-protein antibody titer (pooled sera),Anti-OVA antibody titers; 1 μg per animal,5.1
same,Stimulation index,Anti-OVA antibody titers; 1 μg per animal,3.5
same,Anti-protein antibody titer (pooled sera),Anti-OVA antibody titers; 10 μg per animal,5.4
same,Stimulation index,Anti-OVA antibody titers; 10 μg per animal,4.1
same,Anti-protein antibody titer (pooled sera),Anti-OVA antibody titers; [8],4.8
same,Stimulation index,Anti-OVA antibody titers; [9],2.9
same,Anti-protein antibody titer (for individual sera),Anti-OVA antibody titers; [10],5.2 and 4.8 (4×) and 4.5 and 5.1
same,Anti-protein antibody titer (for individual sera),Anti-OVA antibody titers; [11],4.8 and 4.5 and 5.2 and 5.1 and 5.4 (2×) and 4.3
same,Anti-protein antibody titer (for individual sera),Anti-OVA antibody titers; [12],4.8 and 5.4 (3×) and 4.2 and 5.1 (2×)
"COC(=O)[C@@H](Cc1c[nH]c2ccccc12)NC(=O)C[C@H]1NC(=O)[C@@H](C)NC1=O [Compound 12, Cyclo-D-Ala-D-Asp-(D-Trp-OMe)]",% suppression,[1]; [2],28%
same,Colony count CFU-8 - S per 10^5 cells M ± m,[1]; [2],8.4 ± 0.6 per 10^5 cells
O=C(CC[C@H]1NC(=O)[C@@H](Cc2ccccc2)NC1=O)N[C@H](Cc1c[nH]c2ccccc12)C(=O)[O-].[Na+] [cyclo-DPhe-DGlu-(DTrp-ONa)],% suppression,"[1]; Table 2, donor treated per os",28%
same,Colony count CFU-8 - S per 10^5 cells M ± M,"[1]; Table 2, donor treated per os",8.1 ± 0.4 per 10^5 cells
same,% suppression,[1]; [2],28%
same,Colony count CFU-8 - S per 10^5 cells M ± m,[1]; [2],8.1 ± 0.4 per 10^5 cells
CC1NC(=O)C(CCC(=O)NC(Cc2c[nH]c3ccccc23)C(=O)[O-])NC1=O.[Na+] (centres unmarked) [cyclo-LAla-LGlu-(DTrp-ONa)],% suppression,"[1]; Table 2, donor treated i/p",20%
same,Colony count CFU-8 - S per 10^5 cells M ± M,[1]; [3],8.8 ± 0.2 per 10^5 cells
